Details: bacteroides stercoris, 12 h, 2 µM
Description: The drug is tested on Bacteroides stercoris strain: ATCC43183 for biotransformation. The drug concentrations were measured before and after a 12-h incubation by liquid-chromatography-coupled mass spectrometry (LC–MS)

| Structure (SMILES) | Bacterial Biotransformation |
| --- | --- |
| CNC(=C[N+](=O)[O-])NCCSCc1csc(CN(C)C)n1 [NIZATIDINE] | Compound NOT metabolized |
| CSc1ccc2c(c1)C(N1CCN(C)CC1)Cc1ccccc1S2.O=C(O)/C=C\C(=O)O (centres undefined) | Compound NOT metabolized |
| CCOc1ccc2nc(S(N)(=O)=O)sc2c1 [ETHOXZOLAMIDE] | Compound metabolized |
| CC(C(=O)O)c1ccc2c(c1)Cc1cccnc1O2 (centres undefined) [PRANOPROFEN] | Compound metabolized |
| Br.CN(C)CCCC1(c2ccc(F)cc2)OCc2cc(C#N)ccc21 (centres undefined) [CITALOPRAM HYDROBROMIDE] | Compound NOT metabolized |
| COc1ccc2[nH]c([S+]([O-])Cc3ncc(C)c(OC)c3C)nc2c1 (centres undefined) [OMEPRAZOLE] | Compound metabolized |
| CCN1CCCC1CNC(=O)c1cc(S(=O)(=O)CC)c(N)cc1OC (centres undefined) [AMISULPRIDE] | Compound NOT metabolized |

The remaining lines, values ahead:

| Bacterial Biotransformation | Structure (SMILES) |
| --- | --- |
| Compound NOT metabolized | OC(CCN1CCCCC1)(c1ccccc1)C1CC2C=CC1C2 (centres undefined) [BIPERIDEN] |
| Compound metabolized | CN1CCC[C@@H]1CCO[C@](C)(c1ccccc1)c1ccc(Cl)cc1.O=C(O)/C=C/C(=O)O [CLEMASTINE FUMARATE] |
| Compound metabolized | Cc1nc2n(c(=O)c1CCN1CCC(c3noc4cc(F)ccc34)CC1)CCCC2O (centres undefined) [PALIPERIDONE] |

Details: bacteroides fragilis, 12 h, 2 µM
Description: The drug is tested on Bacteroides fragilis strain: DS-208 for biotransformation. The drug concentrations were measured before and after a 12-h incubation by liquid-chromatography-coupled mass spectrometry (LC–MS)

| Structure (SMILES) | Bacterial Biotransformation |
| --- | --- |
| CNC(=C[N+](=O)[O-])NCCSCc1csc(CN(C)C)n1 [NIZATIDINE] | Compound metabolized |
| CSc1ccc2c(c1)C(N1CCN(C)CC1)Cc1ccccc1S2.O=C(O)/C=C\C(=O)O (centres undefined) | Compound NOT metabolized |
| CCOc1ccc2nc(S(N)(=O)=O)sc2c1 [ETHOXZOLAMIDE] | Compound NOT metabolized |
| CC(C(=O)O)c1ccc2c(c1)Cc1cccnc1O2 (centres undefined) [PRANOPROFEN] | Compound metabolized |
| Br.CN(C)CCCC1(c2ccc(F)cc2)OCc2cc(C#N)ccc21 (centres undefined) [CITALOPRAM HYDROBROMIDE] | Compound NOT metabolized |
| COc1ccc2[nH]c([S+]([O-])Cc3ncc(C)c(OC)c3C)nc2c1 (centres undefined) [OMEPRAZOLE] | Compound metabolized |
| CCN1CCCC1CNC(=O)c1cc(S(=O)(=O)CC)c(N)cc1OC (centres undefined) [AMISULPRIDE] | Compound NOT metabolized |

Continued, values first:

| Bacterial Biotransformation | Structure (SMILES) |
| --- | --- |
| Compound NOT metabolized | OC(CCN1CCCCC1)(c1ccccc1)C1CC2C=CC1C2 (centres undefined) [BIPERIDEN] |
| Compound metabolized | CN1CCC[C@@H]1CCO[C@](C)(c1ccccc1)c1ccc(Cl)cc1.O=C(O)/C=C/C(=O)O [CLEMASTINE FUMARATE] |
| Compound metabolized | Cc1nc2n(c(=O)c1CCN1CCC(c3noc4cc(F)ccc34)CC1)CCCC2O (centres undefined) [PALIPERIDONE] |

Details: enterocloster bolteae, 12 h, 2 µM
Description: The drug is tested on Clostridium bolteae strain: ATCCBAA-613 for biotransformation. The drug concentrations were measured before and after a 12-h incubation by liquid-chromatography-coupled mass spectrometry (LC–MS)

| Structure (SMILES) | Bacterial Biotransformation |
| --- | --- |
| CNC(=C[N+](=O)[O-])NCCSCc1csc(CN(C)C)n1 [NIZATIDINE] | Compound metabolized |
| CSc1ccc2c(c1)C(N1CCN(C)CC1)Cc1ccccc1S2.O=C(O)/C=C\C(=O)O (centres undefined) | Compound NOT metabolized |
| CCOc1ccc2nc(S(N)(=O)=O)sc2c1 [ETHOXZOLAMIDE] | Compound metabolized |
| CC(C(=O)O)c1ccc2c(c1)Cc1cccnc1O2 (centres undefined) [PRANOPROFEN] | Compound metabolized |
| Br.CN(C)CCCC1(c2ccc(F)cc2)OCc2cc(C#N)ccc21 (centres undefined) [CITALOPRAM HYDROBROMIDE] | Compound NOT metabolized |
| COc1ccc2[nH]c([S+]([O-])Cc3ncc(C)c(OC)c3C)nc2c1 (centres undefined) [OMEPRAZOLE] | Compound metabolized |
| CCN1CCCC1CNC(=O)c1cc(S(=O)(=O)CC)c(N)cc1OC (centres undefined) [AMISULPRIDE] | Compound NOT metabolized |

More lines, now with the values ahead:

| Bacterial Biotransformation | Structure (SMILES) |
| --- | --- |
| Compound NOT metabolized | OC(CCN1CCCCC1)(c1ccccc1)C1CC2C=CC1C2 (centres undefined) [BIPERIDEN] |
| Compound NOT metabolized | CN1CCC[C@@H]1CCO[C@](C)(c1ccccc1)c1ccc(Cl)cc1.O=C(O)/C=C/C(=O)O [CLEMASTINE FUMARATE] |
| Compound metabolized | Cc1nc2n(c(=O)c1CCN1CCC(c3noc4cc(F)ccc34)CC1)CCCC2O (centres undefined) [PALIPERIDONE] |

Test: The drug is tested on Clostridium sp. strain: fecal isolate for biotransformation. The drug concentrations were measured before and after a 12-h incubation by liquid-chromatography-coupled mass spectrometry (LC–MS)
Details: 2 µM

| Structure (SMILES) | Bacterial Biotransformation |
| --- | --- |
| CNC(=C[N+](=O)[O-])NCCSCc1csc(CN(C)C)n1 [NIZATIDINE] | Compound metabolized |
| CSc1ccc2c(c1)C(N1CCN(C)CC1)Cc1ccccc1S2.O=C(O)/C=C\C(=O)O (centres undefined) | Compound NOT metabolized |
| CCOc1ccc2nc(S(N)(=O)=O)sc2c1 [ETHOXZOLAMIDE] | Compound metabolized |
| CC(C(=O)O)c1ccc2c(c1)Cc1cccnc1O2 (centres undefined) [PRANOPROFEN] | Compound metabolized |
| Br.CN(C)CCCC1(c2ccc(F)cc2)OCc2cc(C#N)ccc21 (centres undefined) [CITALOPRAM HYDROBROMIDE] | Compound NOT metabolized |
| COc1ccc2[nH]c([S+]([O-])Cc3ncc(C)c(OC)c3C)nc2c1 (centres undefined) [OMEPRAZOLE] | Compound metabolized |
| CCN1CCCC1CNC(=O)c1cc(S(=O)(=O)CC)c(N)cc1OC (centres undefined) [AMISULPRIDE] | Compound NOT metabolized |

Second part, the compound after the results:

| Bacterial Biotransformation | Structure (SMILES) |
| --- | --- |
| Compound NOT metabolized | OC(CCN1CCCCC1)(c1ccccc1)C1CC2C=CC1C2 (centres undefined) [BIPERIDEN] |
| Compound metabolized | CN1CCC[C@@H]1CCO[C@](C)(c1ccccc1)c1ccc(Cl)cc1.O=C(O)/C=C/C(=O)O [CLEMASTINE FUMARATE] |
| Compound metabolized | Cc1nc2n(c(=O)c1CCN1CCC(c3noc4cc(F)ccc34)CC1)CCCC2O (centres undefined) [PALIPERIDONE] |

Test: The drug is tested on Clostridium symbiosum strain: ATCC14940 for biotransformation. The drug concentrations were measured before and after a 12-h incubation by liquid-chromatography-coupled mass spectrometry (LC–MS)
Details: 2 µM

| Structure (SMILES) | Bacterial Biotransformation |
| --- | --- |
| CNC(=C[N+](=O)[O-])NCCSCc1csc(CN(C)C)n1 [NIZATIDINE] | Compound metabolized |
| CSc1ccc2c(c1)C(N1CCN(C)CC1)Cc1ccccc1S2.O=C(O)/C=C\C(=O)O (centres undefined) | Compound NOT metabolized |
| CCOc1ccc2nc(S(N)(=O)=O)sc2c1 [ETHOXZOLAMIDE] | Compound metabolized |
| CC(C(=O)O)c1ccc2c(c1)Cc1cccnc1O2 (centres undefined) [PRANOPROFEN] | Compound metabolized |
| Br.CN(C)CCCC1(c2ccc(F)cc2)OCc2cc(C#N)ccc21 (centres undefined) [CITALOPRAM HYDROBROMIDE] | Compound NOT metabolized |
| COc1ccc2[nH]c([S+]([O-])Cc3ncc(C)c(OC)c3C)nc2c1 (centres undefined) [OMEPRAZOLE] | Compound metabolized |
| CCN1CCCC1CNC(=O)c1cc(S(=O)(=O)CC)c(N)cc1OC (centres undefined) [AMISULPRIDE] | Compound NOT metabolized |

Next, values leading:

| Bacterial Biotransformation | Structure (SMILES) |
| --- | --- |
| Compound NOT metabolized | OC(CCN1CCCCC1)(c1ccccc1)C1CC2C=CC1C2 (centres undefined) [BIPERIDEN] |
| Compound NOT metabolized | CN1CCC[C@@H]1CCO[C@](C)(c1ccccc1)c1ccc(Cl)cc1.O=C(O)/C=C/C(=O)O [CLEMASTINE FUMARATE] |
| Compound metabolized | Cc1nc2n(c(=O)c1CCN1CCC(c3noc4cc(F)ccc34)CC1)CCCC2O (centres undefined) [PALIPERIDONE] |

Test: The drug is tested on Eggerthella lenta strain: ATCC25559 for biotransformation. The drug concentrations were measured before and after a 12-h incubation by liquid-chromatography-coupled mass spectrometry (LC–MS)
Details: 2 µM

| Structure (SMILES) | Bacterial Biotransformation |
| --- | --- |
| CNC(=C[N+](=O)[O-])NCCSCc1csc(CN(C)C)n1 [NIZATIDINE] | Compound NOT metabolized |
| CSc1ccc2c(c1)C(N1CCN(C)CC1)Cc1ccccc1S2.O=C(O)/C=C\C(=O)O (centres undefined) | Compound NOT metabolized |
| CCOc1ccc2nc(S(N)(=O)=O)sc2c1 [ETHOXZOLAMIDE] | Compound metabolized |
| CC(C(=O)O)c1ccc2c(c1)Cc1cccnc1O2 (centres undefined) [PRANOPROFEN] | Compound NOT metabolized |
| Br.CN(C)CCCC1(c2ccc(F)cc2)OCc2cc(C#N)ccc21 (centres undefined) [CITALOPRAM HYDROBROMIDE] | Compound NOT metabolized |
| COc1ccc2[nH]c([S+]([O-])Cc3ncc(C)c(OC)c3C)nc2c1 (centres undefined) [OMEPRAZOLE] | Compound metabolized |
| CCN1CCCC1CNC(=O)c1cc(S(=O)(=O)CC)c(N)cc1OC (centres undefined) [AMISULPRIDE] | Compound NOT metabolized |

The next lines start with the values.

| Bacterial Biotransformation | Structure (SMILES) |
| --- | --- |
| Compound NOT metabolized | OC(CCN1CCCCC1)(c1ccccc1)C1CC2C=CC1C2 (centres undefined) [BIPERIDEN] |
| Compound NOT metabolized | CN1CCC[C@@H]1CCO[C@](C)(c1ccccc1)c1ccc(Cl)cc1.O=C(O)/C=C/C(=O)O [CLEMASTINE FUMARATE] |
| Compound NOT metabolized | Cc1nc2n(c(=O)c1CCN1CCC(c3noc4cc(F)ccc34)CC1)CCCC2O (centres undefined) [PALIPERIDONE] |

Test: The drug is tested on Bifidobacterium ruminantium strain: fecal isolate for biotransformation. The drug concentrations were measured before and after a 12-h incubation by liquid-chromatography-coupled mass spectrometry (LC–MS)
Details: 2 µM

| Structure (SMILES) | Bacterial Biotransformation |
| --- | --- |
| CNC(=C[N+](=O)[O-])NCCSCc1csc(CN(C)C)n1 [NIZATIDINE] | Compound metabolized |
| CSc1ccc2c(c1)C(N1CCN(C)CC1)Cc1ccccc1S2.O=C(O)/C=C\C(=O)O (centres undefined) | Compound NOT metabolized |
| CCOc1ccc2nc(S(N)(=O)=O)sc2c1 [ETHOXZOLAMIDE] | Compound metabolized |
| CC(C(=O)O)c1ccc2c(c1)Cc1cccnc1O2 (centres undefined) [PRANOPROFEN] | Compound metabolized |
| Br.CN(C)CCCC1(c2ccc(F)cc2)OCc2cc(C#N)ccc21 (centres undefined) [CITALOPRAM HYDROBROMIDE] | Compound NOT metabolized |
| COc1ccc2[nH]c([S+]([O-])Cc3ncc(C)c(OC)c3C)nc2c1 (centres undefined) [OMEPRAZOLE] | Compound metabolized |
| CCN1CCCC1CNC(=O)c1cc(S(=O)(=O)CC)c(N)cc1OC (centres undefined) [AMISULPRIDE] | Compound NOT metabolized |

More lines, now with the values ahead:

| Bacterial Biotransformation | Structure (SMILES) |
| --- | --- |
| Compound NOT metabolized | OC(CCN1CCCCC1)(c1ccccc1)C1CC2C=CC1C2 (centres undefined) [BIPERIDEN] |
| Compound metabolized | Cc1nc2n(c(=O)c1CCN1CCC(c3noc4cc(F)ccc34)CC1)CCCC2O (centres undefined) [PALIPERIDONE] |

Source: ChEMBL document CHEMBL5303573, “Mapping human microbiome drug metabolism by gut bacteria and their genes” (Nature, 2019)
